A short description of the data set: Biodistribution of Tc-99m complexes in guinea pigs (heart uptake, heart/blood). Particulars: jugular vein injection, 5 minutes, Tc-99m complex.

SMILES strings stand for the structures.

Method: The procedures used for determining biodistribution are as follows.
Guinea Pigs--The guinea pigs are anesthetized and the technetium complex is injected into the jugular vein after a cutdown. The animals are sacrificed after 5 minutes and the organs removed and counted as with the rats.
For guinea pigs, significant heart uptake is determined if the percentage of technetium in the heart is greater than 0.5% and the heart/blood ratio is greater than 1.

As to `COCCCCC(CN=Cc1ccccc1O)(CN=Cc1ccccc1O)CN=Cc1ccccc1O` (centres unmarked), the “5 Minute Guinea Pig % HT Uptake” value was 1.66%.
As for `CCCOCC(CN=Cc1ccc(OC)cc1O)(CN=Cc1ccc(OC)cc1O)CN=Cc1ccc(OC)cc1O` (centres unmarked), the “5 Minute Guinea Pig % HT Uptake” value was determined as 0.87%.
Take `COc1c(O)c(C=NCC(C)(CN=Cc2c(O)c(OC)c(OC)c(OC)c2OC)CN=Cc2c(O)c(OC)c(OC)c(OC)c2OC)c(OC)c(OC)c1OC` (centres unmarked) [2,3,4,5-tetramethoxyphenol, 6,6'-[[2-[[[(3,4,5,6-tetramethoxy-2-hydroxyphenyl)methylene]amino]methyl]-2-methyl-1,3-propanediyl]bis(nitrilomethylidyne)]bis-]: the “5 Minute Guinea Pig % HT Uptake” value was 1.24%.
With `Oc1c(F)cc(F)cc1C=NCC(CN=Cc1cc(F)cc(F)c1O)(CN=Cc1cc(F)cc(F)c1O)COCc1ccccc1` (centres unmarked) [2,4-difluorophenol, 2,2'-[[2-[[[(3,5-difluoro-2-hydroxyphenyl)methylene]amino]methyl]-2-phenylmethoxymethyl-1,3-propanediyl]bis(nitrilomethylidyne)]bis-] the figure was 1.72%; with `CCOc1cccc(C=NCC(C)(CN=Cc2cccc(OCC)c2O)CN=Cc2cccc(OCC)c2O)c1O` (centres unmarked) [2-ethoxyphenol, 6,6'-[[2-[[[(3-ethoxy-2-hydroxyphenyl)methylene]amino]methyl]-2-methyl-1,3-propanediyl]bis(nitrilomethylidyne)]bis-], 0.50%.
For `CCc1cccc(C=NCC(C)(CN=Cc2cccc(CC)c2O)CN=Cc2cccc(CC)c2O)c1O` (centres unmarked) [2-ethylphenol, 6,6'-[[2-[[[3-ethyl-2-hydroxyphenyl)methylene]amino]methyl]2-methyl-1,3-propanediyl]bis(nitrilomethylidyne)]bis-] the value was 0.47%.
Consider `COc1cc(COCC(CN=Cc2c(O)cc(OC)c(OC)c2OC)(CN=Cc2c(O)cc(OC)c(OC)c2OC)CN=Cc2c(O)cc(OC)c(OC)c2OC)cc(OC)c1OC` (centres unmarked) [3,4,5-trimethoxyphenol, 2,2'-[[2-[[[(4,5,6-trimethoxy-2-hydroxyphenyl)methylene]amino]methyl]-2-(3,4,5-trimethoxyphenyl)methoxymethyl-1,3-propanediyl]bis(nitrilomethylidyne)]bis-], for which the “5 Minute Guinea Pig % HT Uptake” value is 0.98%.
For `COc1ccc(COCC(CN=Cc2c(O)cc(OC)c(OC)c2OC)(CN=Cc2c(O)cc(OC)c(OC)c2OC)CN=Cc2c(O)cc(OC)c(OC)c2OC)cc1` (centres unmarked) [3,4,5-trimethoxyphenol, 2,2'-[[2-[[[(4,5,6-trimethoxy-2-hydroxyphenyl)methylene]amino]methyl]-2-(4-methoxyphenyl)methoxymethyl-1,3-propranediyl]bis(nitrilomethylidyne)]bis-] the value was 1.04%.
On to `COCC(CN=Cc1c(O)cc(OC)c(OC)c1OC)(CN=Cc1c(O)cc(OC)c(OC)c1OC)CN=Cc1c(O)cc(OC)c(OC)c1OC` (centres unmarked) [3,4,5-trimethoxyphenol, 2,2'-[[2-[[[(4,5,6-trimethoxy-2-hydroxyphenyl)methylene]amino]methyl]-2-methoxymethyl-1,3-propanediyl]bis(nitrilomethylidyne)]bis-], for which the “5 Minute Guinea Pig % HT Uptake” value came to 0.86%.
With `COc1cc(O)c(C=NCC(C)(CN=Cc2c(O)cc(OC)c(OC)c2OC)CN=Cc2c(O)cc(OC)c(OC)c2OC)c(OC)c1OC` (centres unmarked) [3,4,5-trimethoxyphenol, 2,2'-[[2-[[[(4,5,6-trimethoxy-2-hydroxyphenyl)methylene]amino]methyl]-2-methyl-1,3-propanediyl]bis(nitrilomethylidyne)]bis-] the figure was 1.57%; with `COc1cc(O)c(C=NCC(CN=Cc2c(O)cc(OC)c(OC)c2OC)(CN=Cc2c(O)cc(OC)c(OC)c2OC)COCc2ccccc2)c(OC)c1OC` (centres unmarked) [3,4,5-trimethoxyphenol, 2,2'-[[2-[[[(4,5,6-trimethoxy-2-hydroxyphenyl)methylene]amino]methyl]-2-phenylmethoxymethyl-1,3-propanediyl]bis(nitrilomethylidyne)]bis-], 0.60%; with `COc1cc(O)c(C=NCC(C)(CN=Cc2c(O)cc(OC)c(C)c2OC)CN=Cc2c(O)cc(OC)c(C)c2OC)c(OC)c1C` (centres unmarked) [3,5-dimethoxy-4-methyl-phenol, 2,2'-[[2-[[[(4,6-dimethoxy-5-methyl-2-hydroxyphenyl)methylene]amino]methyl]-2-methyl-1,3-propanediyl]bis(nitrilomethylidyne)]bis-], 0.84%.
With `CCCOCC(CN=Cc1c(O)cc(OC)cc1OC)(CN=Cc1c(O)cc(OC)cc1OC)CN=Cc1c(O)cc(OC)cc1OC` (centres unmarked) [3,5-dimethoxyphenol, 2,2'-[[2-[[[(4,6-dimethoxy-2-hydroxyphenyl)methylene]amino]methyl]-2-propoxymethyl-1,3-propanediyl]bis(nitrilomethylidyne)]bis-] the figure was 1.21%; with `COc1c(C)cc(O)c(C=NCC(C)(CN=Cc2c(O)cc(C)c(OC)c2C)CN=Cc2c(O)cc(C)c(OC)c2C)c1C` (centres unmarked) [3,5-dimethyl-4-methoxyphenol, 2,2'-[[2-[[[(4,6-dimethyl-5-methoxy-2-hydroxyphenyl)methylene]amino]methyl]-2-methyl-1,3-propanediyl]bis(nitrilomethylidyne)]bis-], 1.07%.
With `CN(C)c1ccc(C=NCC(C)(CN=Cc2ccc(N(C)C)cc2O)CN=Cc2ccc(N(C)C)cc2O)c(O)c1` (centres unmarked) [3-Dimethylaminophenol, 6,6'-[[2-[[[(4-dimethylamino-2-hydroxy-phenyl)methylene]amino]methyl]-2-methyl-1,3-propanediyl]bis-(nitrilomethylidyne)]bis-] the figure was 0.72%.
For the compound `CCOc1ccc(C=NCC(C)(CN=Cc2ccc(OCC)cc2O)CN=Cc2ccc(OCC)cc2O)c(O)c1` (centres unmarked) [3-Ethoxyphenol, 6,6'-[[2[[[(4-ethoxy-2-hydroxyphenyl)methylene]amino]methyl-2-methyl-1,3-propanediyl]bis(nitrilomethylidyne)]bis-], the “5 Minute Guinea Pig % HT Uptake” value was determined as 0.98%.
For the compound `CCCOCC(CN=Cc1ccc(C)cc1O)(CN=Cc1ccc(C)cc1O)CN=Cc1ccc(C)cc1O` (centres unmarked) [3-Methylphenol, 6,6'-[[2-[[[(4-methyl-2-hydroxyphenyl)methylene]amino]methyl]-2-propoxymethyl-1,3-propanediyl]bis(nitrilomethylidyne)]bis-], the “5 Minute Guinea Pig % HT Uptake” value turned out to be 1.79%.
`COC(C)(C)Cc1ccc(O)c(C=NCC(C)(CN=Cc2cc(CC(C)(C)OC)ccc2O)CN=Cc2cc(CC(C)(C)OC)ccc2O)c1` (centres unmarked) [4-(2-methoxy-2-methyl-propyl)phenol, 2,2'-[[2-[[[(5-(2-methoxy-2-methyl-propyl)-2-hydroxyphenyl)methylene]amino]methyl]-2-methyl-1,3-propanediyl]bis(nitrilomethylidyne)]bis-]: the “5 Minute Guinea Pig % HT Uptake” value turned out to be 0.49%.
For `CCCOCC(CN=Cc1cc(OC)ccc1O)(CN=Cc1cc(OC)ccc1O)CN=Cc1cc(OC)ccc1O` (centres unmarked) [4-Methoxyphenyl, 2,2'-[[2-[[[(5-methoxy-2-hydroxyphenyl)methylene]amino]methyl] -2-propoxymethyl-1,3-propanediyl]bis(nitrilomethylidyne)]bis-] the value was 1.52%; for `Oc1ccc(F)cc1C=NCC(CN=Cc1cc(F)ccc1O)(CN=Cc1cc(F)ccc1O)COCc1ccccc1` (centres unmarked) [4-fluorophenol, 2,2'-[[2-[[[(5-fluoro-2-hydroxyphenyl)methylene]amino]methyl]-2-phenylmethoxymethyl-1,3-propanediyl]bis(nitrilomethylidyne)]bis-], 1.14%.

Values taken from patent US5071965A, “Novel TC-99M complexes” (Mallinckrodt Medical, Inc., priority 1989, dated 1991).
